How the values were obtained:
[1] = target: T1, H3 receptors (recombinant human receptor, expressed in HEK-293 cells) (Homo sapiens, UniProt Q9Y5N1); experiment: H3-receptor binding assay, recombinant human receptor
T1 construct: expressed in transfected cells; host or cells: HEK-293 (human embryonic kidney) cells
Method: (§1) General Procedure for H3-Receptor Binding Assay
(§2) The source of the H3 receptors in this experiment was guinea pig brain. Alternatively, the source of H3 receptors was recombinant human receptor, expressed in HEK-293 (human embryonic kidney) cells.
All compounds to be tested were dissolved in DMSO and then diluted into the binding buffer (50 mM Tris, pH 7.5) such that the final concentration was 2 μg/ml with 0.1% DMSO. Membranes were then added (400 μg of protein, 5 μg in the case of recombinant human receptor) to the reaction tubes. The reaction was started by the addition of 3 nM [^3H]R-α-methyl histamine (8.8 Ci/mmol) or 3 nM [^3H]N^α-methyl histamine (80 Ci/mmol) and continued under incubation at 30° C. for 30 min. Bound ligand was separated from unbound ligand by filtration, and the amount of radioactive ligand bound to the membranes was quantitated by liquid scintillation spectrometry. All incubations were performed in duplicate and the standard error was always less than 10%. Compounds that inhibited more than 70% of the specific binding of radioactive ligand to the receptor were serially diluted to determine a Ki (nM).

[2] = target: T2, H3 receptors (guinea pig brain) (Cavia porcellus, UniProt Q9JI35); experiment: H3-receptor binding assay, guinea pig brain membranes
T2 construct: The brain tissue was homogenized with a solution of 50 mM Tris, pH 7.5; from tissue; host or cells: guinea pig brain membranes
T2 sequence (Q9JI35 whole entry): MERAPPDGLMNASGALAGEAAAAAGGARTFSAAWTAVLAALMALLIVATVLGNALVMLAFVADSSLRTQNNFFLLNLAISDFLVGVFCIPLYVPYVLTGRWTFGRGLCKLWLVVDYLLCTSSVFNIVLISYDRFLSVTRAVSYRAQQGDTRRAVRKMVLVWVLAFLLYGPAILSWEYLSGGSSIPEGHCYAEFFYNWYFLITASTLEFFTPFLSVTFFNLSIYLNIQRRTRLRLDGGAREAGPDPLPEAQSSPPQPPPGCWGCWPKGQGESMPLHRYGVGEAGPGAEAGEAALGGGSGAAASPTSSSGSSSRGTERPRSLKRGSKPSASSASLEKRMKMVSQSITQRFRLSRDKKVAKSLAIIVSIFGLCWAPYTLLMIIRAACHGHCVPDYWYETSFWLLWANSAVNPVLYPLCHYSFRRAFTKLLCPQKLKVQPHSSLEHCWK
Method: as §1, §2
The animals weighed 400-600 g. The brain tissue was homogenized with a solution of 50 mM Tris, pH 7.5. The final concentration of tissue in the homogenization buffer was 10% w/v. The homogenates were centrifuged at 1,000×g for 10 min. in order to remove clumps of tissue and debris. The resulting supernatants were then centrifuged at 50,000×g for 20 min. in order to sediment the membranes, which were next washed three times in homogenization buffer (50,000×g for 20 min. each). The membranes were frozen and stored at −70° C. until needed.
All compounds to be tested were dissolved in DMSO and then diluted into the binding buffer (50 mM Tris, pH 7.5) such that the final concentration was 2 μg/ml with 0.1% DMSO. Membranes were then added (400 μg of protein, 5 μg in the case of recombinant human receptor) to the reaction tubes. […] Bound ligand was separated from unbound ligand by filtration, and the amount of radioactive ligand bound to the membranes was quantitated by liquid scintillation spectrometry. […]

T1 sequence (Q9Y5N1 whole entry): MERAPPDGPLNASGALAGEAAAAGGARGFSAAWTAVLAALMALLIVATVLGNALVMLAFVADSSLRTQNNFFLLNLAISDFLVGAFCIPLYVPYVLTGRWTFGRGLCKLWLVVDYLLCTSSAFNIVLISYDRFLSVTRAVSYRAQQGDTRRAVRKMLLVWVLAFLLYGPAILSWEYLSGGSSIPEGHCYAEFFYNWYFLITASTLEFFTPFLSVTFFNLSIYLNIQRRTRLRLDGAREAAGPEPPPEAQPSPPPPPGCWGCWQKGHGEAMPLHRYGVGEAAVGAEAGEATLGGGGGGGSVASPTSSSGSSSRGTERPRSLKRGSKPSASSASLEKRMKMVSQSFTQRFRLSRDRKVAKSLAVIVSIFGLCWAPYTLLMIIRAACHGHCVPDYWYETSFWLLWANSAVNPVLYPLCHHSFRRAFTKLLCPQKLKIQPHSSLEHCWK

Ki [1] [nM]	Ki [2] [nM]	Compound
1.1	–	CNC(=O)[C@H]1C[C@@]1(c1ccc(Cl)cc1)C1CCN(C(=O)C2CCN(Cc3ccnc(N)c3)CC2)CC1 [Example 88]
–	0.35	CS(=O)(=O)NC(c1ccccn1)C1CCN(C(=O)C2CCN(Cc3ccnc(N)c3)CC2)CC1 (centres unmarked) [Example 92]

— US7408066B2, “Carbon-linked substituted piperidines and derivatives thereof useful as histamine H3 antagonists” (Schering Corproation, priority 2005, dated 2008)
